Consider 19 molecules from patent US8895547B2, “Substituted phenyl-oxathiazine derivatives, method for producing them, drugs containing said compounds and the use thereof” (Sanofi, priority 2011, dated 2014).

For orientation: IC50 means the point on the concentration scale where inhibition reaches its midpoint.

The assay concerns the target T1, human 11β-HSD1 (Homo sapiens, UniProt P28845).
T1 construct: host or cells: microsome fraction
The assay is described as follows: Enzymatic 11beta-HSD1 test (SPA-based detection). Type of assay: biochemical. Conditions: human 11β-HSD1 microsome fraction, [1,2-3H]-cortisone, NADPH, 37° C. 1 hour. The method, boiled down:
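Scintillation proximity detection: anti-cortisol antibody on SPA-PVT beads captured tritiated cortisol. The stop mix also contained 0.01 mM SSR110887 and was equilibrated 1 h at room temperature before counting. Cortisol came from [1,2-3H]-cortisone ([…]), turned over by human 11β-HSD1 microsomal protein (0.2 µg) with 0.25 mM NADPH in HEPES buffer, 37 °C, 1 h.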

T1 sequence (P28845 whole entry): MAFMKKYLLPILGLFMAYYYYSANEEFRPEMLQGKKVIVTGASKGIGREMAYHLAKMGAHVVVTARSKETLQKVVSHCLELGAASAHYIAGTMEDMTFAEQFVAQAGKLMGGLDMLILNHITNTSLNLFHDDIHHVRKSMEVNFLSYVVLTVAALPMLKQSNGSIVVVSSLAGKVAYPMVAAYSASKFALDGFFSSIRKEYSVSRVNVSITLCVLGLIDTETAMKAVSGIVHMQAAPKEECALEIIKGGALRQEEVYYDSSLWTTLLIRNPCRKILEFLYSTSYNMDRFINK

Take `CC1(C)OC(N[C@@H](CCO)c2ccccc2F)=NS(=O)(=O)C1c1ccc(N2CCN(C(C)(C)C)CC2)cc1` (stereo partly drawn) [Example 138, (S)-3-{5-[4-(4-tert-Butyl-piperazin-1-yl)-phenyl]-dimethyl-4,4-dioxo-5,6-dihydro-4H-4lambda6-[1,4,3]oxathiazin-2-ylamino}-3-(2-fluorophenyl)-propan-1-ol]: the IC50 was found to be 61 nM.

Molecule `COc1ncc(-c2ccc(C3C(C)(C)OC(N[C@@H](CCO)c4ccccc4F)=NS3(=O)=O)cc2)cn1` (stereo partly drawn) [Example 139, (S)-3-(2-fluorophenyl)-3-{5-[4-(2-methoxy-pyrimidin-5-yl)-phenyl]-6,6-dimethyl-4,4-dioxo-5,6-dihydro-4H-4lambda6-[1,4,3]oxathiazin-2-ylamino}-propan-1-ol] returned an IC50 of 5 nM.

For `CC1(C)OC(N[C@@H](CCO)c2ccccc2F)=NS(=O)(=O)C1c1ccc(CCN2CCOCC2)cc1` (stereo partly shown) [Example 140], the IC50 came out at 69 nM.

The molecule `CC1(C)OC(N[C@@H](CCO)c2ccccc2F)=NS(=O)(=O)C1c1ccc(N2C(=O)c3ccccc3C2=O)cc1` (stereo partly drawn) [Example 141, 2-(4-{2-[(S)-1-(2-fluorophenyl)-3-hydroxy-propylamino]-6,6-dimethyl-4,4-dioxo-5,6-dihydro-4H-4lambda6-[1,4,3]oxathiazin-5-yl}-phenyl)-isoindole-1,3-dione] yielded an IC50 of 14 nM.

Turning to `CC1(C)OC(N[C@@H](CCO)c2ccccc2F)=NS(=O)(=O)C1c1ccc(NC2CCN(C3CC3)CC2)cc1` (stereo partly drawn) [Example 142, (S)-3-{5-[4-(1-Cyclopropyl-piperidin-4-ylamino)-phenyl]-6,6-dimethyl-4,4-dioxo-5,6-dihydro-4H-4lambda6-[1,4,3]oxathiazin-2-ylamino}-3-(2-fluoro-phenyl)-propan-1-ol], the IC50 amounted to 64 nM.

The molecule `CC1(C)OC(N[C@@H](CCO)c2ccccc2F)=NS(=O)(=O)C1c1ccc(C2CCN(CCC(F)(F)F)CC2)cc1` (stereo partly drawn) [Example 143, (S)-3-(6,6-Dimethyl-4,4-dioxo-5-{4-[1-(3,3,3-trifluoropropyl)-piperidin-4-yl]-phenyl}-5,6-dihydro-4H-4lambda6-[1,4,3]oxathiazin-2-ylamino)-3-(2-fluorophenyl)-propan-1-ol] displayed an IC50 of 13 nM.

Molecule `CC(=O)c1ccc(C2C(C)(C)OC(N[C@@H](CCO)c3ccccc3F)=NS2(=O)=O)cc1` (stereo partly shown) [Example 144] gave an IC50 of 10 nM.

`CN1CCN(c2ccc(-c3ccc(C4C(C)(C)OC(N[C@@H](CCO)c5ccccc5F)=NS4(=O)=O)cc3)cn2)CC1` (stereo partly drawn) [Example 145, (S)-3-(6,6-Dimethyl-5-{4-[6-(4-methyl-piperazin-1-yl)-pyridin-3-yl]-phenyl}-4,4-dioxo-5,6-dihydro-4H-4lambda6-[1,4,3]oxathiazin-2-ylamino)-3-(2-fluoro-phenyl)-propan-1-ol] displayed an IC50 of 5 nM.

For the molecule `CC1(C)OC(N[C@@H](CCO)c2ccccc2F)=NS(=O)(=O)[C@H]1c1ccc(-c2ccc(C(N)=O)cc2)cc1` [Example 146, 4′-{(S)-2-[(S)-1-(2-fluorophenyl)-3-hydroxy-propylamino]-6,6-dimethyl-4,4-dioxo-5,6-dihydro-4H-4lambda6-[1,4,3]oxathiazin-5-yl}-biphenyl-4-carboxamide], half-maximal inhibition (IC50) required 8 nM.

In turn, `CC1(C)OC(N[C@@H](CCO)c2ccccc2F)=NS(=O)(=O)[C@@H]1c1ccc(-c2ccc(C(N)=O)cc2)cc1` [Example 147, 4′-{(R)-2-[(S)-1-(2-fluorophenyl)-3-hydroxy-propylamino]-6,6-dimethyl-4,4-dioxo-5,6-dihydro-4H-4lambda6-[1,4,3]oxathiazin-5-yl}-biphenyl-4-carboxamide] displayed an IC50 of 9 nM.

In turn, `CN1CCN(CCc2ccc(C3C(C)(C)OC(N[C@@H](CCO)c4ccccc4F)=NS3(=O)=O)cc2)CC1` (stereo partly drawn) [Example 148, (S)-3-(6,6-Dimethyl-5-{4-[2-(4-methyl-piperazin-1-yl)-ethyl]-phenyl}-4,4-dioxo-5,6-dihydro-4H-4lambda6-[1,4,3]oxathiazin-2-ylamino)-3-(2-fluoro-phenyl)-propan-1-ol] registered an IC50 of 144 nM.

As for `CC1(C)OC(N[C@@H](CCO)c2ccccc2F)=NS(=O)(=O)[C@H]1c1ccc(-c2cccc(C(N)=O)c2)cc1` [Example 149, 4′-{(S)-2-[(S)-1-(2-fluorophenyl)-3-hydroxy-propylamino]-6,6-dimethyl-4,4-dioxo-5,6-dihydro-4H-4lambda6-[1,4,3]oxathiazin-5-yl}-biphenyl-3-carboxamide], the IC50 worked out at 4 nM.

The molecule `CC1(C)OC(N[C@@H](CCO)c2ccccc2F)=NS(=O)(=O)[C@@H]1c1ccc(-c2cccc(C(N)=O)c2)cc1` [Example 150, 4′-{(R)-2-[(S)-1-(2-fluorophenyl)-3-hydroxy-propylamino]-6,6-dimethyl-4,4-dioxo-5,6-dihydro-4H-4lambda6-[1,4,3]oxathiazin-5-yl}-biphenyl-3-carboxamide] returned an IC50 of 3 nM.

For the molecule `CC1(C)OC(N[C@@H](CCO)c2ccccc2F)=NS(=O)(=O)C1c1ccc(C2CCN(C(C)(C)C)CC2)cc1` (stereo partly drawn) [Example 151, (S)-3-{5-[4-(1-tert-Butyl-piperidin-4-yl)-phenyl]-6,6-dimethyl-4,4-dioxo-5,6-dihydro-4H-4lambda6-[1,4,3]oxathiazin-2-ylamino}-3-(2-fluorophenyl)-propan-1-ol], the IC50 was 34 nM.

Turning to `CC1(C)OC(N[C@@H](CCO)c2ccccc2F)=NS(=O)(=O)C1c1ccc(C2CCN(C3CC3)CC2)cc1` (stereo partly drawn) [Example 152, (S)-3-{5-[4-(1-Cyclopropyl-piperidin-4-yl)-phenyl]-6,6-dimethyl-4,4-dioxo-5,6-dihydro-4H-4lamda6-[1,4,3]oxathiazin-2-ylamino}-3-(2-fluorophenyl)-propan-1-ol], the midpoint of inhibition, the IC50, lay at 26 nM.

Turning to `CC(C)(O)c1ccc(C2C(C)(C)OC(N[C@@H](CCO)c3ccccc3F)=NS2(=O)=O)cc1` (stereo partly drawn) [Example 153, (S)-3-(2-fluorophenyl)-3-{5-[4-(1-hydroxy-1-methyl-ethyl)-phenyl]-6,6-dimethyl-4,4-dioxo-5,6-dihydro-4H-4lambda6-[1,4,3]oxathiazin-2-ylamino}-propan-1-ol], the concentration for half-maximal inhibition (IC50) is 48 nM.

`CN1CCN(c2ccc(-c3ccc(C4C(C)(C)OC(N[C@@H](CCO)c5ccccc5F)=NS4(=O)=O)cc3)nc2)CC1` (stereo partly drawn) [Example 154, (S)-3-(6,6-Dimethyl-5-{4-[5-(4-methyl-piperazin-1-yl)-pyridin-2-yl]-phenyl}-4,4-dioxo-5,6-dihydro-4H-4lambda6-[1,4,3]oxathiazin-2-ylamino)-3-(2-fluoro-phenyl)-propan-1-ol] came in with an IC50 of 13 nM.

`CC(=O)Oc1ccc(C2C(C)(C)OC(N[C@@H](CCO)c3ccccc3F)=NS2(=O)=O)cc1` (stereo partly drawn) [Example 155, Acetic acid 4-{2-[(S)-1-(2-fluorophenyl)-3-hydroxy-propylamino]-6,6-dimethyl-4,4-dioxo-5,6-dihydro-4H-4lambda6-[1,4,3]oxathiazin-5-yl}-phenyl ester] gave an IC50 of 17 nM.

The molecule `C[C@H](NC1=NS(=O)(=O)C(c2ccc(-c3cccc(C(N)=O)c3)cc2)C(C)(C)O1)c1ccccc1F` (stereo partly drawn) [Example 156, 4′-{2-[(S)-1-(2-fluorophenyl)-ethylamino]-6,6-dimethyl-4,4-dioxo-5,6-dihydro-4H-4lambda6-[1,4,3]oxathiazin-5-yl}-biphenyl-3-carboxamide] gave an IC50 of 12 nM.
